Experimental data as given in US12195452B2, “N-(4-(oxazol-5-yl)phenyl) chromane-3-carboxamide derivatives and related compounds as stimulators of the production of retinal precursor cells for the treatment of neuroretinal diseases” (ENDOGENA THERAPEUTICS, INC., priority 2018, dated 2025).

Tested on: retinal precursor cells
Test: Sphere passaging and high-throughput drug screening: proliferation of retinal precursor cells from the ciliary epithelium, cell number after one week
Format: cell-based, mammalian
Conditions: control experiment (absence of a compound) = 100; cells grown for one week
Method: Kynurenic Acid (0.2 mg/mL), trypsin (1.33 mg/mL), and hyaluronidase (0.67 mg/mL) were weighed out and dissolved in high magnesium/low calcium artificial cerebral spinal fluid (aCSF) at 37° C. Fibroblast growth factor 2 (FGF2; 10 ng/mL) and heparin (2 μg/mL) were added to 100 mL of serum-free media (SFM). Ovomucoid trypsin inhibitor (1 mg/mL) was dissolved in warm SFM and sterile filtered ([…]).
A dissecting microscope, cold light source, and sterile surgical instruments were set up inside of a sterile biological safety cabinet (BSC). Mammalian eyes were enucleated and placed in a petri dish containing cold, sterile aCSF. Under the dissecting microscope, hair, connective tissue, and the dorsal and ventral oblique muscles were cleared from the scleral/corneal border with two sets of forceps. Next, curved or angled micro-dissecting scissors were used to cleave any remaining extraocular muscle tissue, the optic nerve, and cut the eyeball into symmetrical halves; beginning and finishing the cut from the hole left by the optic nerve. Using two sets of forceps to grasp the cornea, the two eye halves were peeled apart. The lens, optic nerve, and vitreous were separated from the eye shells and the eye shells were transferred into a new petri dish (also containing cold, sterile aCSF). To isolate the ciliary epithelium (CE), eye shells were oriented with the cornea on the right and retinal pigmented epithelium (RPE) on the left. A pair of straight forceps were used to pin down the eye shell on the RPE side while a scalpel blade was inserted between the CE and the iris, using pressure to slice the iris/cornea side off from the rest of the shell. Next, the scalpel was run along the border between the CE and the RPE to obtain the CE isolated as a thin strip of tissue. The CE strips were then transferred to a 35 mm dish containing 2 mL of dispase solution (Sigma; T1005) and incubated for 10 minutes at 37° C. Next, the strips were transferred from dispase into a 35 mm dish containing 2 mL of sterile filtered kynurenic acid, trypsin and hyaluronidase solution and incubated at 37° C. for 10 minutes. After incubation, the dish was returned to the dissecting scope, and the CE strips were pinned down with straight, non-serrated forceps, while non-serrated curved forceps were used to scrape the CE off from the underlying sclera. The bare scleral strips were then discarded, such that only the CE cells remained in the enzyme solution. Using a fire-polished, cotton-plugged glass pipette, the cells and enzyme solution were transferred to a 15 mL tube and triturated approximately 45 times to break apart the tissue. The 15 mL tube/cell suspension was centrifuged for 5 minutes at 1500 rpm. The supernatant was gently aspirated from the resulting pellet using a fire-polished, cotton-plugged glass pipette and 2 mL of trypsin inhibitor solution was added to the pellet. Using a small borehole, fire-polished, cotton-plugged glass pipette, the sample was triturated approximately 45 times until it was a single-cell suspension. The 15 mL tube/cell suspension was centrifuged for 5 minutes at 1500 rpm. The supernatant was gently aspirated from the resulting pellet and 1-2 mL of SFM with FGF2 and heparin (plating media) was added. The cells and media were mixed to ensure a uniform cell suspension and a 10 uL sample was taken and cell density was determined. The cells were then seeded and cultured at 10c/μL in culture-treated plates or flasks. After one week, roughly 1 in 500 cells proliferated to form free-floating, clonal spheres greater than 80 μm in diameter.
Human-derived spheres were passaged using the kynurenic acid, trypsin, hyaluronidase enzyme solution with the addition of collagenase I (0.5 mg/mL), collagenase II (0.5 mg/mL) and elastase (0.1 mg/mL). Mouse-derived spheres were passaged using hyaluronidase (0.67 mg/mL), collagenase I (0.5 mg/mL), and collagenase II (0.5 mg/mL) dissolved in Accustase solution (Sigma; SCR005). […]

First: COc1ccc2c(c1)CC(C(=O)Nc1ccc(-c3ccncc3)c(OC)c1)CO2 (racemic) [Compound 16, 6-methoxy-N-(3-methoxy-4-(pyridin-4-yl)phenyl)chromane-3-carboxamide]
Second: O=C(Nc1ccc(-c2nnco2)c(F)c1)C1COc2ccccc2C1 (racemic) [Compound 29, N-(3-fluoro-4-(1,3,4-oxadiazol-2-yl)phenyl)chromane-3-carboxamide]
The “Cell proliferation within one week [%]” value of the first is higher: 143% for the first, 108% for the second.

First: COc1cc(NC(=O)C2CCOc3ccccc32)ccc1-c1ccncc1 (racemic) [Compound 15, N-(3-methoxy-4-(pyridin-4-yl)phenyl)chromane-4-carboxamide]
Second: O=C(Nc1ccc(-c2cnco2)c(Cl)c1)C1COc2c(F)cc(F)cc2C1 (racemic) [Compound 39, N-(3-chloro-4-(oxazol-5-yl)phenyl)-6,8-difluorochromane-3-carboxamide]
The “Cell proliferation within one week [%]” value of the first is lower: 122% for the first, 132% for the second.

Going from `O=C(Nc1ccc(-c2cnco2)c(Cl)c1)C1COc2ccc(Cl)cc2C1` (racemic) [Compound 38, 6-chloro-N-(3-chloro-4-(oxazol-5-yl)phenyl)chromane-3-carboxamide] to `COc1ccc2c(c1)OC(C(=O)Nc1ccc(-c3cnco3)c(F)c1)CO2` (racemic) [Compound 7, N-(3-fluoro-4-(oxazol-5-yl)phenyl)-7-methoxy-2,3-dihydrobenzo[b][1,4]dioxine-2-carboxamide], the “Cell proliferation within one week [%]” value rises from 122% to 123%.

Going from `O=C(Nc1ccc(-c2cnco2)c(Cl)c1)C1COc2ccccc2O1` (racemic) [Compound 41, N-(3-chloro-4-(oxazol-5-yl)phenyl)-2,3-dihydrobenzo[b][1,4]dioxine-2-carboxamide] to `Cc1cc(-c2cnco2)ccc1NC(=O)C1COc2ccccc2C1` (racemic) [Compound 23, N-(2-methyl-4-(oxazol-5-yl)phenyl) chroman-3-carboxamide], the “Cell proliferation within one week [%]” value rises from 114% to 116%.

Going from “N-(2-(difluoromethoxy)-4-(oxazol-5-yl)phenyl)chroman-3-carboxamide [Compound 26]” to `COc1cccc2c1CC(C(=O)Nc1ccc(-c3cnco3)c(Cl)c1)CO2` (racemic) [Compound 40, N-(3-chloro-4-(oxazol-5-yl)phenyl)-5-methoxychromane-3-carboxamide], the “Cell proliferation within one week [%]” value falls from 138% to 107%.

First: O=C(Nc1ccc(-c2cnco2)c(Cl)c1)C1CCOc2ccccc21 (racemic) [Compound 2, N-(3-chloro-4-(oxazol-5-yl)phenyl) chromane-4-carboxamide]
Second: COc1ccc2c(c1)CC(C(=O)Nc1ccc(-c3cnco3)c(F)c1)CO2 (racemic) [Compound 10, N-(3-fluoro-4-(oxazol-5-yl)phenyl)-6-methoxychromane-3-carboxamide]
The “Cell proliferation within one week [%]” value of the first is higher: 128% for the first, 121% for the second.

First: Cc1cc(NC(=O)C2COc3ccccc3C2)ccc1-c1cnco1 (stereo not shown) [Compound 25, N-(3-methyl-4-(oxazol-5-yl)phenyl)chromane-3-carboxamide]
Second: O=C(Nc1ccc(-c2cnco2)c(Cl)c1)C1COc2ccc(F)cc2C1 (stereo not shown) [Compound 42, N-(3-chloro-4-(oxazol-5-yl)phenyl)-6-fluorochromane-3-carboxamide]
The “Cell proliferation within one week [%]” value of the first is lower: 120% for the first, 124% for the second.

Going from `O=C(Nc1ccc(-c2cnco2)cc1OC(F)F)C1COc2ccccc2C1` (racemic) [Compound 24, N-(2-(difluoromethoxy)-4-(oxazol-5-yl)phenyl)chroman-3-carboxamide] to `Cc1ncc(-c2ccc(NC(=O)C3COc4ccccc4C3)cc2Cl)o1` (racemic) [Compound 30, N-(3-chloro-4-(2-methyloxazol-5-yl)phenyl)chromane-3-carboxamide], the “Cell proliferation within one week [%]” value falls from 126% to 119%.

First: O=C(Nc1ccc(-c2cnco2)c(F)c1)C1COc2ccccc2O1 (racemic) [Compound 9, N-(3-fluoro-4-(oxazol-5-yl)phenyl)-2,3-dihydrobenzo[b][1,4]dioxine-2-carboxamide]
Second: Cc1cc(NC(=O)C2COc3ccccc3C2)ccc1-c1cnco1 (racemic) [Compound 22, N-(3-methyl-4-(oxazol-5-yl)phenyl) chromane-3-carboxamide]
The “Cell proliferation within one week [%]” value of the first is lower: 118% for the first, 120% for the second.

Compared with `O=C(Nc1ccc(-c2cnco2)c(F)c1)C1CCOc2ccccc21` (racemic) [Compound 4, N-(3-fluoro-4-(oxazol-5-yl)phenyl)chromane-4-carboxamide], `COc1ccc2c(c1)CC(C(=O)Nc1ccc(-c3cnco3)c(Cl)c1)CO2` (racemic) [Compound 3, N-(3-chloro-4-(oxazol-5-yl)phenyl)-6-methoxychromane-3-carboxamide] is higher in “Cell proliferation within one week [%]” value: 106% for the first, 138% for the second.

Compared with `O=C(Nc1ccc(-n2cncn2)c(C(F)(F)F)c1)C1COc2ccccc2C1` (racemic) [Compound 28, N-(4-(1H-1,2,4-triazol-1-yl)-3-(trifluoromethyl)phenyl)chromane-3-carboxamide], `O=C(Nc1ccc(-c2cnco2)c(Cl)c1)C1CCOc2ccccc21` (racemic) [Compound 32, N-(3-chloro-4-(oxazol-5-yl)phenyl)chromane-4-carboxamide] is lower in “Cell proliferation within one week [%]” value: 118% for the first, 113% for the second.

Compared with `O=C(Nc1ccc(-c2cnco2)c(Cl)c1)C1COc2ccccc21` (racemic) [Compound 35, N-(3-chloro-4-(oxazol-5-yl)phenyl)-2,3-dihydrobenzofuran-3-carboxamide], `COc1cc(NC(=O)C2COc3ccccc3C2)ccc1-c1cnco1` (racemic) [Compound 12, N-(3-methoxy-4-(oxazol-5-yl)phenyl) chromane-3-carboxamide] is higher in “Cell proliferation within one week [%]” value: 125% for the first, 230% for the second.

Compared with `O=C(Nc1ccc(-c2cnco2)c(F)c1)C1COc2ccccc2C1` (racemic) [Compound 5, N-(3-fluoro-4-(oxazol-5-yl)phenyl)chromane-3-carboxamide], `O=C(Nc1ccc(-c2cnco2)c(Cl)c1)C1CCc2ccccc21` (racemic) [Compound 33, N-(3-chloro-4-(oxazol-5-yl)phenyl)-2,3-dihydro-1H-indene-1-carboxamide] is lower in “Cell proliferation within one week [%]” value: 133% for the first, 116% for the second.

Compared with `O=C(Nc1ccc(-c2cnco2)c(Cl)c1)C1COc2ccccc2C1` (racemic) [Compound 1, N-(3-chloro-4-(1,3-oxazol-5-yl)phenyl) chromane-3-carboxamide], `O=C(Nc1ccc(-c2cnco2)c(Cl)c1)C1COc2cc(F)ccc2C1` (racemic) [Compound 37, N-(3-chloro-4-(oxazol-5-yl)phenyl)-7-fluorochromane-3-carboxamide] is lower in “Cell proliferation within one week [%]” value: 179% for the first, 158% for the second.

First: O=C(Nc1ccc(-c2cnco2)c(Cl)c1)C1COc2ccccc2O1 (racemic) [Compound 6, N-(3-chloro-4-(oxazol-5-yl)phenyl)-2,3-dihydrobenzo[b][1,4]dioxine-2-carboxamide]
Second: O=C(CC1Cc2ccccc2O1)Nc1ccc(-c2cnco2)c(Cl)c1 (racemic) [Compound 34, N-(3-chloro-4-(oxazol-5-yl)phenyl)-2-(2,3-dihydrobenzofuran-2-yl)acetamide]
The “Cell proliferation within one week [%]” value of the first is lower: 120% for the first, 129% for the second.

Same assay, conditions: within one week, over control

Compared with `COc1ccc2c(c1)CC(C(=O)Nc1ccc(-c3ccncc3)c(OC)c1)CO2` (racemic) [Compound 16, 6-methoxy-N-(3-methoxy-4-(pyridin-4-yl)phenyl)chromane-3-carboxamide], `COc1cc(NC(=O)C2COc3ccccc3C2)ccc1-c1cnco1` (racemic) [Compound 12, N-(3-methoxy-4-(oxazol-5-yl)phenyl) chromane-3-carboxamide] is higher in “increase of cell proliferation” value: 43% for the first, 130% for the second.

First: O=C(Nc1ccc(-c2cnco2)c(Cl)c1)C1COc2ccc(Cl)cc2C1 (racemic) [Compound 38, 6-chloro-N-(3-chloro-4-(oxazol-5-yl)phenyl)chromane-3-carboxamide]
Second: O=C(Nc1ccc(-c2cnco2)c(Cl)c1)C1COc2ccccc2C1 (racemic) [Compound 1, N-(3-chloro-4-(1,3-oxazol-5-yl)phenyl) chromane-3-carboxamide]
The “increase of cell proliferation” value of the first is lower: 58% for the first, 79% for the second.
